# Measured values from patent US6624192B1, “Process for production of diacetylrhein” (Madaus AG, priority 1991, dated 2003).
# Columns and labels:
# localised arthrosis = test: Clinical single blind crossover study against naproxen; assay type: in vivo, patients
# Experimental: 3. The action of diacetylrhein in the case of localised arthrosis in 20 patients was investigated in a single blind crossover study against naproxen. […] Subsequently, there followed a three day wash-out phase and a further treatment with 250 mg of naproxen twice daily for a further 20 days. In the second group, the reverse sequence was used. The period of treatment was, in all, 43 days. The test parameters of pain, compression pain, passive movement pain, functional limitation and swelling were determined according to a score system.
# osteoarthrosis = test: Clinical randomised double blind compatibility study (oesophagogastroduodenoscopic findings); assay type: in vivo, patients; conditions: after 4 weeks
# Experimental: 4. The action of diacetylrhein was investigated in 23 patients (12/11) with osteoarthrosis in a randomised double blind study using the “double dummy technique” (compatibility study). The dosage administered was 50 mg of diacetylrhein twice daily and 250 mg of naproxen three times daily. The period of treatment was 4 weeks. The test parameters were the oesophagogastroduodenoscopic findings before and after the therapy. Only patients with normal mucosal findings or with slight mucosal lesions (grade 1) were used in the study.
# in vivo = conditions: rat, mouse, cat
# [1] = test system: osteoarthrosis of the spine and of the knee; test: Clinical open study with physiotherapy control; assay type: in vivo, patients
# Experimental: 2. In an open running study with control, there was investigated the action of diacetylrhein against osteoarthrosis of the spine and of the knee in 70 patients (35/35). The dosage administered was 100 mg of diacetylrhein per day. The period of treatment was 60 days and the period of observation was 75 days. The test parameters were pain and movement limitation. The parameters were evaluated according to a score system. The control group comprised 35 patients in the case of which exclusively physiotherapeutic measures were carried out. Physiotherapy was also carried out in the diacetylrhein treatment group.
# [2] = test system: arthrosis induced by the intraarticular administration of vitamin A; test: Vitamin A arthrosis in rabbits; assay type: in vivo, rabbit; conditions: for Clinical signs of arthrosis (disturbances of movement): 7 rabbits
# Experimental: The effectiveness of diacetylrhein was determined in chronic inflammation models after oral administration. The following experimental models were used: cotton pellet granuloma in rats and arthrosis in rabbits induced by the intraarticular administration of vitamin A. b) Vitamin A arthrosis. An arthrosis-like joint change was initiated in two groups each of 10 rabbits (white New Zealanders) by means of three intraarticular injections of 30,000 IU of Vitamin A over the course of 9 days. 56 days later, 10 animals were treated with 3 mg of diacetylrhein/kg/day for 8 weeks. […] Furthermore, the curative action of diacetylrhein was compared with that of acetylsalicylic acid on each of 7 rabbits which, after 6 days pre-treatment with three times 10,000 IU Vitamin A and a 26 day treatment-free interval for 8 weeks, received either 5 mg of diacetylrhein/kg/day (experimental group) or 15 mg of acetylsalicylic acid/kg/day (positive control group) or remained untreated (negative control group). […] In the negative control group, during the following 8 weeks, the clinical signs of a manifest arthrosis increased.
# [3] = test system: coxarthrosis and gonarthrosis; test: Clinical double-blind study against naproxen with placebo after-treatment; assay type: in vivo, patients; conditions: for Improvement in all test parameters (pain and movement symptoms, functional limitation, compatibility) in comparison with the initial values: 60 days
# Experimental: 1. The action of diacetylrhein was investigated in coxarthrosis and gonarthrosis in 95 (49/46) patients in a double-blind study against naproxen and subsequent placebo after-treatment. The dosage administered was 50 mg of diacetylrhein twice daily or 750 mg of naproxen daily. The period of treatment was 60 days after a 7 day wash-out phase. The subsequent placebo treatment extended over 60 days.
# Test parameters were the pain and movement symptoms according to a score scale, functional limitation and compatibility.
# gastric mucosa = test: Gastric mucosa changes in the rat; assay type: in vivo
# cotton pellet granuloma = test: Cotton pellet granuloma in rats; assay type: in vivo, rat
# Experimental: The effectiveness of diacetylrhein was determined in chronic inflammation models after oral administration. The following experimental models were used: cotton pellet granuloma in rats and arthrosis in rabbits induced by the intraarticular administration of vitamin A. a) Cotton pellet granuloma in rats. Young sexually mature rats (n=10) were given 25, 50 or 100 mg diacetylrhein/kg or 5 mg indomethacin/kg or 100 mg acetylsalicylic acid/kg daily for 5 days. A control group only treated with water was also used. Implantation of the pellets took place on the first day of treatment.
# [4] = crossover study, 43 days in all
smiles,measurement,setting,value
"CC(=O)Oc1cccc2c1C(=O)c1c(OC(C)=O)cc(C(=O)O)cc1C2=O [diacetylrhein, Diacetylrhein]","Pain, compression pain, passive movement pain, functional limitation and swelling (score system) in comparison with naproxen","localised arthrosis; 50 mg twice daily for 20 days vs 250 mg naproxen twice daily for 20 days, crossover",superiority
same,Clinical laboratory parameters,localised arthrosis; [4],no changes
same,Side effects,localised arthrosis; [4],No noteworthy side effects
same,Patients with mucosal lesions of grade 2 (endoscopic findings),"osteoarthrosis; 50 mg twice daily, one case",10%
same,LD50,in vivo,119 to 339 mg/kg
same,LD50,in vivo; po,1900 to 7900 mg/kg
same,Effect after discontinuation of the treatment,"[1]; 100 mg per day for 60 days, observation 75 days",continuing therapeutic effect (hang-over effect)
same,"Pain and movement limitation (all parameters, score system) versus control group","[1]; 100 mg per day, 60 days, plus physiotherapy, control physiotherapy only",statistically significant superiority
same,Clinical signs of arthrosis (disturbances of movement),"[2]; 5 mg/kg/day for 8 weeks, curative",improved significantly
same,Macroscopically and microscopically recognisable joint changes,"[2]; rabbits, 3 mg/kg/day for 8 weeks, in comparison with the control group",significantly reduced
same,"Improvement in all test parameters (pain and movement symptoms, functional limitation, compatibility) in comparison with the initial values","[3]; 50 mg twice daily, P<0.01",statistically significant rate of improvement
same,"Night pain and pressure pain after discontinuation, in comparison with the naproxen/placebo collective","[3]; 30 days after discontinuation, 5% level",difference was also verified
same,"Spontaneous pain and active and passive movement pain after discontinuation, in comparison with the naproxen/placebo collective","[3]; days 90 and 120, placebo after-treatment, P<0.01",statistically significant superiority
same,Erosions of the gastric mucosa,gastric mucosa; single administration of 400 mg/kg,did not give rise to any erosions
same,Mucosal damage,gastric mucosa; twice daily 100 mg/kg over 3 days,did not initiate any mucosal damage
same,Fresh and dry weights of the granuloma,"cotton pellet granuloma; rats n=10, oral, 25, 50 or 100 mg/kg daily for 5 days, in comparison with the control group",significant and clearly dosage-dependent reduction
same,Weights of the thymus and adrenals,"cotton pellet granuloma; rats, during the 5 days treatment",did not change
same,Action on granuloma compared with reference drugs,"cotton pellet granuloma; rats, oral, 100 mg diacetylrhein/kg daily for 5 days vs 5 mg indomethacin/kg or 100 mg acetylsalicylic acid/kg",corresponded to about the action of 5 mg indomethacin or of 100 mg acetylsalicylic acid
"CC(=O)Oc1ccccc1C(=O)O [acetylsalicylic acid, reference compound]",Clinical signs of arthrosis (disturbances of movement),"[2]; 15 mg/kg/day for 8 weeks, positive control group",improved significantly
COc1ccc2c(c1)c(CC(=O)O)c(C)n2C(=O)c1ccc(Cl)cc1 [indomethacin],Mucosal damage,"gastric mucosa; in vivo, 10 mg/kg",certainly did
same,Diameter of the erosions,"gastric mucosa; in vivo, 10 mg/kg, 3 days",1 to 3 mm
same,Erosions of the gastric mucosa,"gastric mucosa; in vivo, 20 mg/kg",distinct mucosal damages
CC(C)Cc1ccc(C(C)C(=O)O)cc1 (stereo not shown) [ibuprofen],Erosions of the gastric mucosa,"gastric mucosa; in vivo, 200 mg/kg",distinct mucosal damages
"COc1ccc2cc([C@H](C)C(=O)O)ccc2c1 [naproxen, reference compound]","Patients with mucosal lesions of grade 2, 3 and 4 (endoscopic findings)","osteoarthrosis; 250 mg three times daily, 5 patients",50%
same,"Improvement in all test parameters (pain and movement symptoms, functional limitation, compatibility) in comparison with the initial values","[3]; 750 mg daily, P<0.05",statistically significant rate of improvement
